PubChem BioAssay AID1963833 (Molecular Pharmacology Branch, DTP, NCI, 2024)

Test system: 883617-216-R-J1-PDC complex spheroid viability
Assay: Anticancer human tumor 883617-216-R-J1-PDC patient-derived bladder carcinoma cell line growth inhibition [POLQ]
Details: for IC50: curve of first compound; for viability, T/C: stronger effect = lower value
Method in brief: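 PDC + HUVEC + MSC complex spheroids; POLQ inhibitors ± partner drugs; top conc. at/near clinical Cmax, else 10 microM (SN-38 1 microM), half-log dilutions; 37 degrees C, 5% CO2.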

[1] = second compound 0.0316 µM, first compound 0.0316 µM
[2] = second compound 0.0316 µM, first compound 0.1 µM
[3] = second compound 0.1 µM, first compound 0.0316 µM
[4] = second compound 0.1 µM, first compound 0.1 µM
[5] = second compound 0.316 µM, first compound 0.0316 µM
[6] = second compound 0.316 µM, first compound 0.1 µM
[7] = second compound 1 µM, first compound 0.0316 µM
[8] = second compound 1 µM, first compound 0.1 µM
[9] = second compound 3.16 µM, first compound 0.0316 µM
[10] = second compound 3.16 µM, first compound 0.1 µM
[11] = second compound 10 µM, first compound 0.0316 µM
[12] = second compound 10 µM, first compound 0.1 µM
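Also: spheroids exposed to compounds for seven days before readout.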
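For viability, T/C in this document: 100% = DMSO vehicle control viability.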

## Cn1ncnc1[C@H]1c2n[nH]c(=O)c3cc(F)cc(c23)N[C@@H]1c1ccc(F)cc1 + Cc1cccc(N(C)C(=O)C2C(O)CCN2c2nc(C)cc(C(F)(F)F)c2C#N)c1
Second compound 0.0316 µM
  IC50: > 100 nM
Second compound 0.1 µM
  IC50: > 100 nM
Second compound 0.316 µM
  IC50: > 100 nM
Second compound 1 µM
  IC50: > 100 nM
Second compound 3.16 µM
  IC50: > 100 nM
Second compound 10 µM
  IC50: > 100 nM
Second compound 0.0316 µM, first compound 0.000316 µM
  viability, T/C: 99.2%
Second compound 0.0316 µM, first compound 0.001 µM
  viability, T/C: 101%
Second compound 0.0316 µM, first compound 0.00316 µM
  viability, T/C: 93.4%
Second compound 0.0316 µM, first compound 0.01 µM
  viability, T/C: 78%
[1]
  viability, T/C: 74.4%
[2]
  viability, T/C: 73.7%
Second compound 0.1 µM, first compound 0.000316 µM
  viability, T/C: 96.3%
Second compound 0.1 µM, first compound 0.001 µM
  viability, T/C: 96.3%
Second compound 0.1 µM, first compound 0.00316 µM
  viability, T/C: 96.9%
Second compound 0.1 µM, first compound 0.01 µM
  viability, T/C: 86.6%
[3]
  viability, T/C: 82.9%
[4]
  viability, T/C: 76.7%
Second compound 0.316 µM, first compound 0.000316 µM
  viability, T/C: 95.7%
Second compound 0.316 µM, first compound 0.001 µM
  viability, T/C: 98.3%
Second compound 0.316 µM, first compound 0.00316 µM
  viability, T/C: 94.2%
Second compound 0.316 µM, first compound 0.01 µM
  viability, T/C: 81.1%
[5]
  viability, T/C: 72.8%
[6]
  viability, T/C: 64.2%
Second compound 1 µM, first compound 0.000316 µM
  viability, T/C: 98.1%
Second compound 1 µM, first compound 0.001 µM
  viability, T/C: 98.6%
Second compound 1 µM, first compound 0.00316 µM
  viability, T/C: 88.6%
Second compound 1 µM, first compound 0.01 µM
  viability, T/C: 84.8%
[7]
  viability, T/C: 83%
[8]
  viability, T/C: 74%
Second compound 3.16 µM, first compound 0.000316 µM
  viability, T/C: 109%
Second compound 3.16 µM, first compound 0.001 µM
  viability, T/C: 96.8%
Second compound 3.16 µM, first compound 0.00316 µM
  viability, T/C: 94.8%
Second compound 3.16 µM, first compound 0.01 µM
  viability, T/C: 84.5%
[9]
  viability, T/C: 81.8%
[10]
  viability, T/C: 69.2%
Second compound 10 µM, first compound 0.000316 µM
  viability, T/C: 103%
Second compound 10 µM, first compound 0.001 µM
  viability, T/C: 100%
Second compound 10 µM, first compound 0.00316 µM
  viability, T/C: 98.4%
Second compound 10 µM, first compound 0.01 µM
  viability, T/C: 90.8%
[11]
  viability, T/C: 91.3%
[12]
  viability, T/C: 80.6%

## Nc1ccn(C2OC(CO)C(O)C2(F)F)c(=O)n1 (centres undefined) + Cc1cccc(N(C)C(=O)C2C(O)CCN2c2nc(C)cc(C(F)(F)F)c2C#N)c1
Second compound 0.0316 µM
  IC50: < 31.6 nM
Second compound 0.1 µM
  IC50: < 31.6 nM
Second compound 0.316 µM
  IC50: < 31.6 nM
Second compound 1 µM
  IC50: < 31.6 nM
Second compound 3.16 µM
  IC50: < 31.6 nM
Second compound 10 µM
  IC50: < 31.6 nM
[1]
  viability, T/C: 35.8%
[2]
  viability, T/C: 33.2%
Second compound 0.0316 µM, first compound 0.316 µM
  viability, T/C: 41.2%
Second compound 0.0316 µM, first compound 1 µM
  viability, T/C: 41.4%
Second compound 0.0316 µM, first compound 3.16 µM
  viability, T/C: 33.5%
Second compound 0.0316 µM, first compound 10 µM
  viability, T/C: 31.1%
[3]
  viability, T/C: 28%
[4]
  viability, T/C: 45.6%
Second compound 0.1 µM, first compound 0.316 µM
  viability, T/C: 31.8%
Second compound 0.1 µM, first compound 1 µM
  viability, T/C: 38.2%
Second compound 0.1 µM, first compound 3.16 µM
  viability, T/C: 36.9%
Second compound 0.1 µM, first compound 10 µM
  viability, T/C: 24.6%
[5]
  viability, T/C: 30.1%
[6]
  viability, T/C: 31.9%
Second compound 0.316 µM, first compound 0.316 µM
  viability, T/C: 34%
Second compound 0.316 µM, first compound 1 µM
  viability, T/C: 38.5%
Second compound 0.316 µM, first compound 3.16 µM
  viability, T/C: 31.6%
Second compound 0.316 µM, first compound 10 µM
  viability, T/C: 35.5%
[7]
  viability, T/C: 32.5%
[8]
  viability, T/C: 27.6%
Second compound 1 µM, first compound 0.316 µM
  viability, T/C: 33.8%
Second compound 1 µM, first compound 1 µM
  viability, T/C: 36.5%
Second compound 1 µM, first compound 3.16 µM
  viability, T/C: 39.3%
Second compound 1 µM, first compound 10 µM
  viability, T/C: 34.7%
[9]
  viability, T/C: 35%
[10]
  viability, T/C: 28.4%
Second compound 3.16 µM, first compound 0.316 µM
  viability, T/C: 41.2%
Second compound 3.16 µM, first compound 1 µM
  viability, T/C: 39.8%
Second compound 3.16 µM, first compound 3.16 µM
  viability, T/C: 40.9%
Second compound 3.16 µM, first compound 10 µM
  viability, T/C: 27.4%
[11]
  viability, T/C: 37.9%
[12]
  viability, T/C: 35.5%
Second compound 10 µM, first compound 0.316 µM
  viability, T/C: 39.2%
Second compound 10 µM, first compound 1 µM
  viability, T/C: 39.2%
Second compound 10 µM, first compound 3.16 µM
  viability, T/C: 39.1%
Second compound 10 µM, first compound 10 µM
  viability, T/C: 31.7%
